# In patent publication US20240109893A1, “PREPARATION AND APPLICATION METHOD OF HETEROCYCLIC COMPOUNDS AS KRAS INHIBITOR” (SHANGHAI KECHOW PHARMA, INC., priority 2020, published 2024):
# System: H358 cells
# Experiment: Cell activity experiment: activity test of H358 cells (MTT, 5 days)
# Assay type: cell-based
# Conditions: Homo sapiens, NCI-H358, 120 h, 5 days incubation, absorbance 492 nm
# How it was run: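 H358 cells seeded 90 μL at 55555 cells/mL, grown 24 h, then exposed to 3-fold serial compound dilutions (final top 10000 nM, 0.5% DMSO) in triplicate for 5 days at 37° C., 5% CO2. Viability by MTT (4 h), formazan dissolved in DMSO, absorbance at 492 nm.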
row,SMILES,IC50
1,C=CC(=O)N1CCN(c2nc(OCC34CCCN3C[C@H](F)C4)nc3cc(-c4cncc5cccc(Cl)c45)ccc23)C[C@@H]1CC#N (stereo partly shown) [Example 132],3 nM
2,C=C(F)C(=O)N1CCN(c2nc(OCC34CCCN3C[C@H](F)C4)nc3cc(-c4cncc5cccc(Cl)c45)ccc23)C[C@@H]1CC#N (stereo partly shown) [Example 133],8 nM
3,C=CC(=O)N1CCN(c2nc(OC[C@@H]3CCCN3C)nc3cc(-c4cncc5c4CCCC5)ccc23)C[C@@H]1CC#N [Example 142],20 nM
4,C=C(F)C(=O)N1CCN(c2nc(OC[C@@H]3CCCN3C)nc3cc(-c4cncc5c4CCCC5)ccc23)C[C@@H]1CC#N [Example 143],80 nM
5,C=CC(=O)N1CCN(c2nc(OC[C@@H]3C[C@@H](F)CN3C)nc3cc(-c4cncc5c4CCCC5)ccc23)C[C@@H]1CC#N [Example 144],25 nM
6,C=C(F)C(=O)N1CCN(c2nc(OC[C@@H]3C[C@@H](F)CN3C)nc3cc(-c4cncc5c4CCCC5)ccc23)C[C@@H]1CC#N [Example 145],102 nM
7,"C=CC(=O)N1CCN(c2nc(OC[C@@H]3CCCN3C)nc3c(F)c(-c4cncc5cccc(Cl)c45)ccc23)C[C@@H]1CC#N [Example 158, 2-((S)-1-acryloyl-4-(7-(5-chloroisoquinolin-4-yl)-8-fluoro-2-(((S)-1-methylpyrrolidin-2-yl)methoxy)quinazolin-4-yl)piperazin-2-yl)acetonitrile]",4 nM
8,C=C(F)C(=O)N1CCN(c2nc(OC[C@@H]3CCCN3C)nc3c(F)c(-c4cncc5cccc(Cl)c45)ccc23)C[C@@H]1CC#N [Example 159],18 nM
9,C=CC(=O)N1CCN(c2nc(OC[C@@H]3C[C@@H](F)CN3C)nc3c(F)c(-c4cncc5cccc(Cl)c45)ccc23)C[C@@H]1CC#N [Example 160],5 nM
10,C=C(F)C(=O)N1CCN(c2nc(OC[C@@H]3C[C@@H](F)CN3C)nc3c(F)c(-c4cncc5cccc(Cl)c45)ccc23)C[C@@H]1CC#N [Example 161],20 nM
11,C=C(F)C(=O)N1CCN(c2nc(OC[C@@]34CCCN3C[C@H](F)C4)nc3c(F)c(-c4cncc5cccc(Cl)c45)ccc23)C[C@@H]1CC#N [Example 165],4 nM
12,C=CC(=O)N1CCN(c2nc(OC[C@@]34CCCN3C[C@H](F)C4)nc3nc(-c4cccc5cccc(Cl)c45)ccc23)C[C@@H]1CC#N [Example 260],10 nM
13,C=C(F)C(=O)N1CCN(c2nc(OC[C@@]34CCCN3C[C@H](F)C4)nc3nc(-c4cccc5cccc(Cl)c45)ccc23)C[C@@H]1CC#N [Example 261],24 nM
14,"C=CC(=O)N1CCN(c2nc(OC[C@@H]3CCCN3C)nc3c(F)c(-c4cccc5ccc(F)c(Cl)c45)ccc23)C[C@@H]1CC#N [Example 359, 2-((S)-1-acryloyl-4-(7-(8-chloro-7-fluoronaphthalen-1-yl)-8-fluoro-2-(((S)-1-methylpyrrolidin-2-yl)methoxy)quinazolin-4-yl)piperazin-2-yl)acetonitrile]",3 nM
15,C=CC(=O)N1CCN(c2nc(OC[C@@H]3C[C@@H](F)CN3C)nc3c(F)c(-c4cccc5cccc(Cl)c45)ccc23)C[C@@H]1CC#N [Example 361],5 nM
16,C=CC(=O)N1CCN(c2nc(OC[C@@H]3C[C@@H](F)CN3C)nc3c(F)c(-c4cccc5ccc(F)c(Cl)c45)ccc23)C[C@@H]1CC#N [Example 362],4.6 nM

# Other lines, results leading:
row,IC50,SMILES
1,10 nM,"C=CC(=O)N1CCN(c2nc(OCC34CCCN3CCC4)nc3cc(-c4cncc5c4CCCC5)ccc23)C[C@@H]1CC#N [Example 146, (S)-2-(1-acryloyl-4-(2-((tetrahydro-1H-pyrrolizin-7a(5H)-yl)methoxy)-7-(5,6,7,8-tetrahydroisoquinolin-4-yl)quinazolin-4-yl)piperazin-2-yl)acetonitrile]"
2,18 nM,C=C(F)C(=O)N1CCN(c2nc(OCC34CCCN3CCC4)nc3cc(-c4cncc5c4CCCC5)ccc23)C[C@@H]1CC#N [Example 147]
3,5 nM,C=CC(=O)N1CCN(c2nc(OCC34CCCN3C[C@H](F)C4)nc3cc(-c4cncc5c4CCCC5)ccc23)C[C@@H]1CC#N (stereo partly shown) [Example 148]
4,10 nM,C=C(F)C(=O)N1CCN(c2nc(OCC34CCCN3C[C@H](F)C4)nc3cc(-c4cncc5c4CCCC5)ccc23)C[C@@H]1CC#N (stereo partly shown) [Example 149]
5,2 nM,"C=CC(=O)N1CCN(c2nc(OCC34CCCN3CCC4)nc3c(F)c(-c4cncc5cccc(Cl)c45)ccc23)C[C@@H]1CC#N [Example 162, (S)-2-(1-acryloyl-4-(7-(5-chloroisoquinolin-4-yl)-8-fluoro-2-((tetrahydro-1H-pyrrolizin-7a(5H)-yl)methoxy)quinazolin-4-yl)piperazin-2-yl)acetonitrile]"
6,5 nM,"C=C(F)C(=O)N1CCN(c2nc(OCC34CCCN3CCC4)nc3c(F)c(-c4cncc5cccc(Cl)c45)ccc23)C[C@@H]1CC#N [Example 163, (S)-2-(4-(7-(5-chloroisoquinolin-4-yl)-8-fluoro-2-((tetrahydro-1H-pyrrolizin-7a(5H)-yl)methoxy)quinazolin-4-yl)-1-(2-fluoroacryloyl)piperazin-2-yl)acetonitrile]"
7,1.5 nM,"C=CC(=O)N1CCN(c2nc(OCC34CCCN3C[C@H](F)C4)nc3c(F)c(-c4cncc5cccc(Cl)c45)ccc23)C[C@@H]1CC#N (stereo partly drawn) [Example 164, 2-((2S)-1-acryloyl-4-(7-(5-chloroisoquinolin-4-yl)-8-fluoro-2-((((2R,7aS)-2-fluorotetrahydro-1H-pyrrolizin-7a(5H))-yl)methoxy)quinazolin-4-yl)piperazin-2-yl)acetonitrile]"
8,15 nM,"C=CC(=O)N1CCN(c2nc(OCC34CCCN3CCC4)nc3nc(-c4cccc5cccc(Cl)c45)ccc23)C[C@@H]1CC#N [Example 258, (S)-2-(1-acryloyl-4-(7-(8-chloronaphthalen-1-yl)-2-((tetrahydro-1H-pyrrolizin-7a(5H)-yl)methoxy)pyridino[2,3-d]pyrimidin-4-yl)piperazin-2-yl)acetonitrile]"
9,31 nM,"C=C(F)C(=O)N1CCN(c2nc(OCC34CCCN3CCC4)nc3nc(-c4cccc5cccc(Cl)c45)ccc23)C[C@@H]1CC#N [Example 259, (S)-2-(4-(7-(8-chloronaphthalen-1-yl)-2-((tetrahydro-1H-pyrrolizin-7a(5H)-yl)methoxy)pyridino[2,3-d]pyrimidin-4-yl)-1-(2-fluoroacryloyl)piperazin-2-yl)acetonitrile]"
10,10 nM,C=CC(=O)N1CCN(c2nc(OC[C@@H]3C[C@@H](F)CN3C)nc3c(F)c(-c4cccc5c4CCCC5)ccc23)C[C@@H]1CC#N [Example 360]
11,5 nM,"C=CC(=O)N1CCN(c2nc(OCC34CCCN3CCC4)nc3c(F)c(-c4cccc5c4CCCC5)ccc23)C[C@@H]1CC#N [Example 363, (S)-2-(1-acryloyl-4-(8-fluoro-2-((tetrahydro-1H-pyrrolizin-7a(5H)-yl)methoxy)-7-(5,6,7,8-tetrahydronaphthalene)-1-yl)quinazolin-4-ylpiperazin-2-yl)acetonitrile]"
12,2 nM,"C=CC(=O)N1CCN(c2nc(OCC34CCCN3CCC4)nc3c(F)c(-c4cccc5cccc(Cl)c45)ccc23)C[C@@H]1CC#N [Example 364, (S)-2-(1-acryloyl-4-(7-(8-chloronaphthalen-1-yl)-8-fluoro-2-((tetrahydro-1H-pyrrolizin-7a(5H)-yl)methoxy)quinazolin-4-yl)piperazin-2-yl)acetonitrile]"
